From patent US11254690B2, “PTEFb inhibiting macrocyclic compounds” (BAYER AKTIENGESELLSCHAFT, priority 2017, dated 2022)
Read-outs that look alike come from different tables or passages of the source.

Experiments:
[1] = test system: A2780 cells; assay: Proliferation assay, A2780; type: cell-based, human; conditions: 72-hour exposure, Cell Titre-Glo, read-out: Inhibition of A2780 cell proliferation IC50
Protocol: (§1) Cultivated tumour cells (HeLa, human cervical tumour cells, ATCC CCL-2; NCI-H460, human non-small cell lung carcinoma cells, ATCC HTB-177; DU 145, hormone-independent human prostate carcinoma cells, ATCC HTB-81; HeLa-MaTu-ADR, multidrug-resistant human cervical carcinoma cells, EPO-GmbH Berlin; Caco-2, human colorectal carcinoma cells, ATCC HTB-37; B16F10, mouse melanoma cells, ATCC CRL-6475) were plated at a density of 5,000 cells/well (DU145, HeLa-MaTu-ADR), 3,000 cells/well (NCI-H460, HeLa), 1,500 cells/well (Caco-2), or 1,000 cells/well (B16F10) in a 96-well multititer plate in 200 μL of their respective growth medium supplemented 10% fetal calf serum. After 24 hours, the cells of one plate (zero-point plate) were stained with crystal violet (see below), while the medium of the other plates was supplemented with the test substances in various concentrations (0 μM, as well as in the range of 0.0001-10 μM; the final concentration of the solvent dimethyl sulfoxide was adjusted to 0.1%) using a Hewlett-Packard HP D300 Digital Dispenser. The cells were incubated for 4 days in the presence of test substances. Cell proliferation was determined by staining the cells with crystal violet: the cells were fixed by adding 20 μl/measuring point of an 11% glutaric aldehyde solution for 15 minutes at room temperature. After three washing cycles of the fixed cells with water, the plates were dried at room temperature. The cells were stained by adding 100 μl/measuring point of a 0.1% crystal violet solution (pH 3.0). After three washing cycles of the stained cells with water, the plates were dried at room temperature. The dye was dissolved by adding 100 μl/measuring point of a 10% acetic acid solution. The extinction was determined by photometry at a wavelength of 595 nm. The change of cell number, in percent, was calculated by normalization of the measured values to the extinction values of the zero-point plate (=0%) and the extinction of the untreated ([…]) cells (=100%). The IC50 values (inhibitory concentration at 50% of maximal effect) were determined by means of a 4 parameter fit. A2780 human ovarian carcinoma cells (ECACC #93112519) and non-adherent MOLM-13 human acute myeloid leukemia cells (DSMZ ACC 554) were seeded at a density of 3,000 cell/well (A2780) or 5,000 cells/well (MOLM-13) in a 96-well multititer plate in 150 μL of growth medium supplemented 10% fetal calf serum. After 24 hours, cell viability of one plate (zero-point plate) was determined with the Cell Titre-Glo Luminescent Cell Viability Assay (Promega), while the medium of the other plates was supplemented with the test substances in various concentrations (0 μM, as well as in the range of 0.0001-10 μM; the final concentration of the solvent dimethyl sulfoxide was adjusted to 0.1%) using a Hewlett-Packard HP D300 Digital Dispenser. Cell viability was assessed after 72-hour exposure with the Cell Titre-Glo Luminescent Cell Viability Assay (Promega). IC50 values (inhibitory concentration at 50% of maximal effect) were determined by means of a 4 parameter fit on measurement data which were normalized to vehicle (DMSO) treated cells (=100%) and measurement readings taken immediately before compound exposure (=0%).

[2] = test system: HeLa-MaTu-ADR cells; assay: Proliferation assay, HeLa-MaTu-ADR; type: cell-based; conditions: Homo sapiens, 96 h; 4 days, crystal violet; read-out: Inhibition of HeLa-MaTu-ADR cell proliferation IC50
Protocol: as §1

[3] = test system: DU145 cells; assay: Proliferation assay, DU145; type: cell-based; conditions: Homo sapiens, DU-145, 96 h; 4 days, crystal violet; read-out: Inhibition of DU145 cell proliferation IC50
Protocol: as §1

IC50 [1] [µM] | IC50 [2] [µM] | IC50 ([1]; Homo sapiens, A2780, 72 h) [µM] | IC50 [3] [µM] | SMILES
0.0007 |  |  |  | CC1CCCCOc2cc(ccc2F)-c2cc(ncc2F)Nc2cc(CS(C)(=N)=O)cc(n2)O1 (single isomer, unassigned) [Example 22, 3,21-difluoro-14-methyl-10-[(S-methylsulfonimidoyl)methyl]-13,19-dioxa-5,7,25-triazatetracyclo[18.3.1.1^2,6.1^8,12]hexacosa-1(24),2(26),3,5,8(25),9,11,20,22-nonaene]
 | 0.179 | 0.068 | 0.196 | CS(=N)(=O)Cc1cc2cc(c1)OCCCCOc1c(F)ccc(c1F)-c1nc(ncc1F)N2 (racemic) [Example 8, (rac)-3,20,23-trifluoro-10-[(S-methylsulfonimidoyl)methyl]-13,18-dioxa-5,7,25-triazatetracyclo[17.3.1.1^2,6.1^8,12]pentacosa-1(23),2(25),3,5,8(24),9,11,19,21-nonaene]
 | 0.169 | 0.039 | 0.121 | CS(=N)(=O)Cc1cc2cc(c1)OCCCCCOc1cc(ccc1F)-c1nc(ncc1F)N2 (racemic) [Example 6, (rac)-3,21-difluoro-10-[(S-methylsulfonimidoyl)methyl]-13,19-dioxa-5,7,26-triazatetracyclo[18.3.1.1^2,6.1^8,12]hexacosa-1(24),2(26),3,5,8(25),9,11,20,22-nonaene]
0.006 |  |  |  | CC1CCCOc2cc(ccc2F)-c2cc(ncc2F)Nc2cc(CS(C)(=N)=O)cc(n2)O1 (single isomer, unassigned) [Example 17, 3,20-difluoro-14-methyl-10-[(S-methylsulfonimidoyl)methyl]-13,18-dioxa-5,7,24-triazatetracyclo[17.3.1.1^2,6.1^8,12]pentacosa-1(23),2(25),3,5,8(24),9,11,19,21-nonaene]
 | 0.078 | 0.009 | 0.085 | CS(=N)(=O)Cc1cc2nc(c1)OCCCCOc1cc(ccc1F)-c1cc(ncc1F)N2 (racemic) [Example 2, (rac)-3,20-difluoro-10-[(S-methylsulfonimidoyl)methyl]-13,18-dioxa-5,7,24-triazatetracyclo[17.3.1.1^2,6.1^8,12]pentacosa-1(23),2(25),3,5,8(24),9,11,19,21-nonaene]
 | 0.14 | 0.041 | 0.138 | CS(=N)(=O)Cc1cc2cc(c1)OCCCCOc1cc(ccc1F)-c1nc(ncc1F)N2 (racemic) [Example 4, (rac)-3,20-difluoro-10-[(S-methylsulfonimidoyl)methyl]-13,18-dioxa-5,7,25-triazatetracyclo[17.3.1.1^2,6.1^8,12]pentacosa-1(23),2(25),3,5,8(24),9,11,19,21-nonaene]
0.006 |  |  |  | CC1CCCOc2cc(ccc2F)-c2cc(ncc2F)Nc2cc(CS(C)(=N)=O)cc(n2)O1 (single isomer, unassigned) [Example 16, 3,20-difluoro-14-methyl-10-[(S-methylsulfonimidoyl)methyl]-13,18-dioxa-5,7,24-triazatetracyclo[17.3.1.1^2,6.1^8,12]pentacosa-1(23),2(25),3,5,8(24),9,11,19,21-nonaene]
 | 0.155 | 0.048 | 0.18 | CS(=N)(=O)Cc1cc2cc(c1)OCCCOc1cc(ccc1F)-c1nc(ncc1F)N2 (racemic) [Example 10, (rac)-3,19-difluoro-10-[(S-methylsulfonimidoyl)methyl]-13,17-dioxa-5,7,24-triazatetracyclo[16.3.1.1^2,6.1^8,12]tetracosa-1(22),2(24),3,5,8(23),9,11,18,20-nonaene]
 | 0.218 | 0.056 | 0.206 | CC(C)(C)OC(=O)N=S(C)(=O)Cc1cc2cc(c1)OCCCCOc1cc(ccc1F)-c1nc(ncc1F)N2 (racemic) [Example 3, (rac)-tert-butyl [{[3,20-difluoro-13,18-dioxa-5,7,25-triazatetracyclo[17.3.1.1^2,6.1^8,12]pentacosa-1(23),2(25),3,5,8(24),9,11,19,21-nonaen-10-yl]methyl}(methyl)oxido-λ^6-sulfanylidene]carbamate]
 | 1 | > 0.1 | 0.585 | CC(C)(C)OC(=O)N=S(C)(=O)Cc1cc2cc(c1)OCCCCCOc1cc(ccc1F)-c1nc(ncc1F)N2 (racemic) [Example 5, (rac)-tert-butyl [{[3,21-difluoro-13,19-dioxa-5,7,26-triazatetracyclo[18.3.1.1^2,6.1^8,12]hexacosa-1(24),2(26),3,5,8(25),9,11,20,22-nonaen-10-yl]methyl}(methyl)oxido-λ^6-sulfanylidene]carbamate]
0.027 |  |  |  | CC1CCCCOc2cc(ccc2F)-c2cc(ncc2F)Nc2cc(CS(C)(=N)=O)cc(n2)O1 (single isomer, unassigned) [Example 21, 3,21-difluoro-14-methyl-10-[(S-methylsulfonimidoyl)methyl]-13,19-dioxa-5,7,25-triazatetracyclo[18.3.1.1^2,6.1^8,12]hexacosa-1(24),2(26),3,5,8(25),9,11,20,22-nonaene]
 |  | 0.016 |  | CC1CCCOc2cc(ccc2F)-c2cc(ncc2F)Nc2cc(CS(C)(=O)=O)cc(n2)O1 (racemic) [Example 28, 3,20-difluoro-14-methyl-10-[(methylsulfonyl)methyl]-13,18-dioxa-5,7,24-triazatetracyclo[17.3.1.1^2,6.1^8,12]pentacosa-1(23),2(25),3,5,8(24),9,11,19,21-nonaene]
